“And” between values parts separate entries of the source, which are not always exact repeats. Equal values may be shown once. Read-outs that look alike come from different tables or passages of the source.
Assays:
[1] = tested on: infiltrating inflammatory cells in BALF; assay: Bronchoalveolar lavage fluid cell count in BLM mice; assay type: in vivo, C57BL/6 mice; details: 30 mg·kg^−1, day 14
Experimental: Male C57BL/6 mice (8‐10 weeks old) were purchased from HFK Bioscience Co. Ltd. All animal experiments were permitted by the Institutional Animal Care and Treatment Committee of Sichuan University in China (New Permit Number: 20190524003). Lung fibrosis was induced using BLM treatment (2 mg·kg^−1). All C57BL/6 mice were divided into five groups (n = 10): a BLM + Nintedanib group (Nintedanib, 30 mg·kg^−1), a BLM + YTH‐60 group (YTH‐60, 15 mg·kg^−1 and 30 mg·kg^−1), a control group (Sham), and a bleomycin group (Vehicle). At the beginning, the mice were anaesthetized using 10% chloral hydrate, dissolved BLM with saline and administered intratracheally. To evaluate the preventive effect, the next day after BLM challenge, YTH‐60 and Nintedanib were administered intraperitoneally daily for 13 days (fibroproliferation) to the mice. All mice were sacrificed 24 hours after the last drug injection, the lungs and other organs were taken for the subsequent analysis. To test the therapeutic effect, after the 7th day of BLM treatment, mice were injected intraperitoneally with YTH‐60, Nintedanib and vehicle daily for 7 consecutive days (fibroproliferation).
After the animals were anaesthetized, rinsing the lungs with 1 mL of normal saline three times and collected bronchoalveolar lavage fluid. The total living cell count was performed by an ADVIA 2120i.

[2] = target: FGFR4 (h) (Homo sapiens, UniProt P22455); assay: Kinase profile assay and IC50 test (Eurofins); assay type: biochemical; details: double testing
Experimental: (§1) The in vitro kinase enzymatic inhibition assays were carried out by the Kinase Profiling Services provided by Eurofins (UK). The detailed protocol descriptions can be provided by the website (https://www.eurofinsdiscoveryservices.com).

[3] = target: FGFR3 (h) (Homo sapiens, UniProt P22607); assay: Kinase profile assay and IC50 test (Eurofins); assay type: biochemical; details: double testing
Experimental: as §1

[4] = Pharmacokinetics study after IV and PO administration to SD rats; assay type: in vivo
Experimental: The appropriate amount of YTH‐60 was accurately weighed, added to the final volume of 5% DMSO, 40% PEG400 and 55% normal saline, and vortexed or ultrasonicated to fully mix. Then, 0.4 and 2 mg·mL^−1 of clarified dosing solution was used for intravenous administration and oral gavage administration. SD rats were transferred from the Experimental Animal Library (999 M‐017), Shanghai Xipuer‐Beikai Experimental Animal Co. Ltd. After oral, intravenous or intragastric administration, blood was collected by jugular vein or other suitable methods. Approximately 0.20 mL of each sample was collected, in the presence of heparin sodium as an anticoagulant. After the blood samples were collected, they were placed on ice and centrifuged to separate plasma within 2 hours (centrifugation conditions: centrifugal force 6800 g, 6 minutes, 2‐8°C). The collected plasma samples were stored at −80°C before analysis by LC‐MS/MS‐18. After analysis, the remaining plasma samples were stored at −80°C for a period of 1 month.

Sequence of FGFR3 (h) (P22607 23-806): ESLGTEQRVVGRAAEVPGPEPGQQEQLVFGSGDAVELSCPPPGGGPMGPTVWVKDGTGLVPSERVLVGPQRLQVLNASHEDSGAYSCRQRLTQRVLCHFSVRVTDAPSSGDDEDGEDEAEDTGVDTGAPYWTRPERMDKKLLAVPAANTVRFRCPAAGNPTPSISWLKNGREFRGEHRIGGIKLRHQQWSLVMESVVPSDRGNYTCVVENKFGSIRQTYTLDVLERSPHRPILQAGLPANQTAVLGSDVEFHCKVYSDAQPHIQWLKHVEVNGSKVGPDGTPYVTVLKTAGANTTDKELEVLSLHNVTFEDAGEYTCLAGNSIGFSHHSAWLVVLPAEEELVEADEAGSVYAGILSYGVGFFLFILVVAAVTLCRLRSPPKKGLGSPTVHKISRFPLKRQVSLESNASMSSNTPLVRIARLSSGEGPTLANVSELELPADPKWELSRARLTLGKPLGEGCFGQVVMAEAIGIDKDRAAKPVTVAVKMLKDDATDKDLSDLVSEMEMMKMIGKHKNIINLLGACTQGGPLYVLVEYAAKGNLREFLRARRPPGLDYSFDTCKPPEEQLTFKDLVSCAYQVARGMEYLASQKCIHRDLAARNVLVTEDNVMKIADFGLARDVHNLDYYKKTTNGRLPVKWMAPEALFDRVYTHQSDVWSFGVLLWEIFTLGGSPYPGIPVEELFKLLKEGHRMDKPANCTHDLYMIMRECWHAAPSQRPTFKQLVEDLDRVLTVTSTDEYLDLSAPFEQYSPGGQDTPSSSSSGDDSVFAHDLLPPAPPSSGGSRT
Sequence of FGFR4 (h) (P22455 22-802): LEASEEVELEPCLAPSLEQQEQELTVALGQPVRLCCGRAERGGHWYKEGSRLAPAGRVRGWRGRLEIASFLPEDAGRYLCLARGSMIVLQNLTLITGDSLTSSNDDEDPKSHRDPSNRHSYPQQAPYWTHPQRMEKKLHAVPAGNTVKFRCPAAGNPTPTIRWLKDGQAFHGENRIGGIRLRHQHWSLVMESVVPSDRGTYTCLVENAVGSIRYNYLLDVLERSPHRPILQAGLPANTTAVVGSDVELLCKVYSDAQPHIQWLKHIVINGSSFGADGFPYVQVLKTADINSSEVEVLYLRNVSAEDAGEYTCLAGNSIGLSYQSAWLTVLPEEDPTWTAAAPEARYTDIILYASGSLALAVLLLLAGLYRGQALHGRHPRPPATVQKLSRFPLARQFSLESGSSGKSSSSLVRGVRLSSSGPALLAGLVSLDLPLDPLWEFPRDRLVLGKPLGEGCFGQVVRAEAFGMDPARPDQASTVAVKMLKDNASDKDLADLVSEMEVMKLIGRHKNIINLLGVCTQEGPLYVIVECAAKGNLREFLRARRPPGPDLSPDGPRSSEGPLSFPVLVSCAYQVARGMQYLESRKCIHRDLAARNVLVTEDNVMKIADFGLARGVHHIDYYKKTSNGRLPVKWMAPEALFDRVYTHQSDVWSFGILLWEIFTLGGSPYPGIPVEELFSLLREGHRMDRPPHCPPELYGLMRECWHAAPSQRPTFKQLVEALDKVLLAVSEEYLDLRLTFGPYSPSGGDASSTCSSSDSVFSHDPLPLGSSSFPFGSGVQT

COc1cc(OC)c(Cl)c(-c2ccc3c(/C=C/c4ccc(N(C)C(=O)CN5CCN(C)CC5)cc4)n[nH]c3c2)c1Cl [YTH‐60, (E)‐N‐(4‐(2‐(6‐(2,6‐dichloro‐3,5‐dimethoxyphenyl)‐1H‐indazol‐3‐yl)vinyl)phenyl)‐N‐methyl‐2‐(4‐methylpiperazin‐1‐yl)acetamide]
infiltrating inflammatory cells in BALF (in words) [1]: significantly reduce the number of infiltrating inflammatory cells | IC50 [2]: 424 nM | IC50 [3]: 9 nM | Individual plasma concentration ([4]; IV 2 mg/kg, 0.083 h, individual animals 101, 102, 103, 2 mg/kg): 423.84 ng/mL and 362.43 ng/mL | Individual plasma concentration ([4]; IV 2 mg/kg, 0.25 h, individual animals 101, 102, 103, 2 mg/kg): 168.72 ng/mL and 204.54 ng/mL | Individual plasma concentration ([4]; IV 2 mg/kg, 0.5 h, individual animals 101, 102, 103, 2 mg/kg): 128.91 ng/mL and 163.29 ng/mL | Individual plasma concentration ([4]; IV 2 mg/kg, 1 h, individual animals 101, 102, 103, 2 mg/kg): 107.71 ng/mL and 131.39 ng/mL | Individual plasma concentration ([4]; IV 2 mg/kg, 2 h, individual animals 101, 102, 103, 2 mg/kg): 69.27 ng/mL and 80.59 ng/mL | Individual plasma concentration ([4]; IV 2 mg/kg, 4 h, individual animals 101, 102, 103, 2 mg/kg): 42.78 ng/mL and 48.71 ng/mL | Individual plasma concentration ([4]; IV 2 mg/kg, 6 h, individual animals 101, 102, 103, 2 mg/kg): 34.45 ng/mL and 41.43 ng/mL | Individual plasma concentration ([4]; IV 2 mg/kg, 8 h, individual animals 101, 102, 103, 2 mg/kg): 22.38 ng/mL and 32.19 ng/mL | Individual plasma concentration ([4]; IV 2 mg/kg, 24 h, individual animals 101, 102, 103, 2 mg/kg): 2.68 ng/mL and 3.51 ng/mL | Individual plasma concentration ([4]; PO 20 mg/kg, 0.25 h, individual animals 201, 202, 203, 20 mg/kg): 38.10 ng/mL and 22.94 ng/mL | Individual plasma concentration ([4]; PO 20 mg/kg, 0.5 h, individual animals 201, 202, 203, 20 mg/kg): 25.31 ng/mL and 35.39 ng/mL | Individual plasma concentration ([4]; PO 20 mg/kg, 1 h, individual animals 201, 202, 203, 20 mg/kg): 34.05 ng/mL and 26.26 ng/mL | Individual plasma concentration ([4]; PO 20 mg/kg, 2 h, individual animals 201, 202, 203, 20 mg/kg): 87.47 ng/mL and 35.35 ng/mL and 57.08 ng/mL | Individual plasma concentration ([4]; PO 20 mg/kg, 4 h, individual animals 201, 202, 203, 20 mg/kg): 83.13 ng/mL and 87.88 ng/mL | Individual plasma concentration ([4]; PO 20 mg/kg, 6 h, individual animals 201, 202, 203, 20 mg/kg): 85.16 ng/mL and 114.92 ng/mL | Individual plasma concentration ([4]; PO 20 mg/kg, 8 h, individual animals 201, 202, 203, 20 mg/kg): 79.77 ng/mL and 97.21 ng/mL | Individual plasma concentration ([4]; PO 20 mg/kg, 24 h, individual animals 201, 202, 203, 20 mg/kg): 14.36 ng/mL and 18.49 ng/mL | concentration at 2 h ([4]; SD, rat, plasma, iv, 2 mg/kg, IV 2 mg/kg, 2 h, individual animals 101, 102, 103, read-out: Individual plasma concentration): 68.3 ng/mL | concentration at 2 h ([4]; SD, rat, plasma, iv, 2 mg/kg, IV 2 mg/kg, 2 h, read-out: Mean plasma concentration): 72.7 ng/mL | concentration at 4 h ([4]; SD, rat, plasma, iv, 2 mg/kg, IV 2 mg/kg, 4 h, individual animals 101, 102, 103, read-out: Individual plasma concentration): 41.1 ng/mL | concentration at 4 h ([4]; SD, rat, plasma, iv, 2 mg/kg, IV 2 mg/kg, 4 h, read-out: Mean plasma concentration): 44.2 ng/mL | concentration at 6 h ([4]; SD, rat, plasma, iv, 2 mg/kg, IV 2 mg/kg, 6 h, individual animals 101, 102, 103, read-out: Individual plasma concentration): 36.8 ng/mL | concentration at 6 h ([4]; SD, rat, plasma, iv, 2 mg/kg, IV 2 mg/kg, 6 h, read-out: Mean plasma concentration): 37.6 ng/mL | concentration at 8 h ([4]; SD, rat, plasma, iv, 2 mg/kg, IV 2 mg/kg, 8 h, individual animals 101, 102, 103, read-out: Individual plasma concentration): 20.4 ng/mL | AUC ([4]; SD, rat, plasma, iv, 2 mg/kg, SD rats, i.v. 2 mg·kg^−1, read-out: AUC0‐t): 773 ± 99.4 ng·h/mL | AUC ([4]; SD, rat, plasma, iv, 2 mg/kg, SD rats, i.v. 2 mg·kg^−1, read-out: AUC0‐∞): 793 ± 104 ng·h/mL | MRT ([4]; SD, rat, plasma, iv, 2 mg/kg, SD rats, i.v. 2 mg·kg^−1, read-out: MRT0‐t): 4.5 ± 0.28 h | MRT ([4]; SD, rat, plasma, iv, 2 mg/kg, SD rats, i.v. 2 mg·kg^−1, read-out: MRT0‐∞): 5.16 ± 0.36 h | AUC ([4]; SD, rat, plasma, iv, 2 mg·kg^−1, SD rats, after an IV dose, read-out: mean AUC(0‐t)): 773 ng·h/mL | concentration at 2 h ([4]; SD, rat, plasma, po, 20 mg/kg, PO 20 mg/kg, 2 h, read-out: Mean plasma concentration): 60 ng/mL | concentration at 4 h ([4]; SD, rat, plasma, po, 20 mg/kg, PO 20 mg/kg, 4 h, individual animals 201, 202, 203, read-out: Individual plasma concentration): 84.7 ng/mL | concentration at 4 h ([4]; SD, rat, plasma, po, 20 mg/kg, PO 20 mg/kg, 4 h, read-out: Mean plasma concentration): 85.2 ng/mL | concentration at 6 h ([4]; SD, rat, plasma, po, 20 mg/kg, PO 20 mg/kg, 6 h, individual animals 201, 202, 203, read-out: Individual plasma concentration): 82.5 ng/mL | concentration at 6 h ([4]; SD, rat, plasma, po, 20 mg/kg, PO 20 mg/kg, 6 h, read-out: Mean plasma concentration): 94.2 ng/mL

From publication PMC8249783, “A novel multikinase inhibitor SKLB‐YTH‐60 ameliorates inflammation and fibrosis in bleomycin‐induced lung fibrosis mouse models” (Cell Proliferation, 2021)
